According to publication PMC9979163, “Discovery and functional characterization of N-(thiazol-2-yl)-benzamide analogs as the first class of selective antagonists of the Zinc-Activated Channel (ZAC)” (Biochemical pharmacology, 2021):

Key:
[1] = molecular target: T1, m5-HT3AR (Mus musculus, UniProt P23979); assay: TEVC selectivity, m5-HT3AR in oocytes; assay type: cell-based; details: 30 μM, 30 s preapplication, 2 μM 5-HT (EC20–EC40)
T1 sequence (P23979 24-489): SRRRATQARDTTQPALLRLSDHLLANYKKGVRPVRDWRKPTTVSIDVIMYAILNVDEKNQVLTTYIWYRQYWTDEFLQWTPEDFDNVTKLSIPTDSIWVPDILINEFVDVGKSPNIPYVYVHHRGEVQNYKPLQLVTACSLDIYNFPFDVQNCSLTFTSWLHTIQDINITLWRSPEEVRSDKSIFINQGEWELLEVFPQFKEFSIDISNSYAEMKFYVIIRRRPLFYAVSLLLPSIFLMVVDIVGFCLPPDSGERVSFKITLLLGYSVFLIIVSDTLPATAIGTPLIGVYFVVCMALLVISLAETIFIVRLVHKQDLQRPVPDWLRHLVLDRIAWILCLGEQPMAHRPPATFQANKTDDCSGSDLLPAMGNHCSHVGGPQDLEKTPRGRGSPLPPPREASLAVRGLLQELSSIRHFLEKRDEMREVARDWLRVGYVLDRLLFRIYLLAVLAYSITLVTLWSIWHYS
Experimental: (§1) The cDNAs for the various WT and chimeric CLR subunits were linearized and subsequently transcribed and capped mMessage mMachine T7 RNA transcription kit (Ambion, Waltham, MA). […]
(§2) On the day of experiment, all compound dilutions were prepared in a saline solution [115 mM NaCl, 2.5 mM KCl, 10 mM MOPS (pH 7.5), 1.8 mM CaCl2, 0.1 mM MgCl2] and pH adjusted to 7.5 (if needed). […] Currents were recorded using pCLAMP 10 (Molecular Devices, Sunnyvale, CA). […]
(§3) In all recordings, the compounds or compound combinations were applied in the bath until the peak current decayed to a steady state (up to 30 sec at the most). […] The functional properties of the modulators at the CLRs were determined by pre-application of the modulator to the perfusate 30 sec and followed by co-application of the modulator and the agonist to the perfusate. […]
(§4) Data analysis of the results from the TEVC recordings were performed using Clampfit software version 10.5 (Molecular Devices, Crawley, UK) and GraphPad Prism version 7.0c (GraphPad Software, Inc. La Jolla, CA). […] I-V relationships were analyzed by fitting the curves with a third order polynomial model. […]

[2] = molecular target: T2, hα1 GlyR (Homo sapiens, UniProt P23415); assay: TEVC selectivity, hα1 GlyR in oocytes; assay type: cell-based; details: 30 μM, 30 s preapplication, 100 μM glycine (EC20–EC40)
T2 sequence (P23415 29-457): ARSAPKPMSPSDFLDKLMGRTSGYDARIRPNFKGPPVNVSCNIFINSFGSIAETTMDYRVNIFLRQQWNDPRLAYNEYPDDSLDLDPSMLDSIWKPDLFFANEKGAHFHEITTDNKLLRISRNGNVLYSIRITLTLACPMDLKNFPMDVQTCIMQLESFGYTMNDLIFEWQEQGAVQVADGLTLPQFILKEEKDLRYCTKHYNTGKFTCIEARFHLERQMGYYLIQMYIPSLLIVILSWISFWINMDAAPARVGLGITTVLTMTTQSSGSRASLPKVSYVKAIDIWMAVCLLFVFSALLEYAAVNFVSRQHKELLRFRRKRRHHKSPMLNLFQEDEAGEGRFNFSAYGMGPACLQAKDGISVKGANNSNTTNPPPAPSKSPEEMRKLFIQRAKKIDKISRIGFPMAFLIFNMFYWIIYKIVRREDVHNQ
Experimental: as §1, §2, §3, §4

[3] = Solubility (remark); assay type: physicochemical

Agonist, antagonist or PAM activity [1]: did not display significant activity
Agonist, antagonist or PAM activity [2]: did not display significant activity
Solubility (in words) [3]: limited solubility
SMILES: CC(C)(C)c1csc(NC(=O)c2cccc(F)c2)n1 [5a, N-(4-(tert-butyl)thiazol-2-yl)-3-fluorobenzamide]
